Measured values from ChEMBL document CHEMBL5291721, “A preclinical secondary pharmacology resource illuminates target-adverse drug reaction associations of marketed drugs” (Nat Commun, 2023).

Key:
[1] = biological target: T1, Alpha-1A adrenergic receptor (Homo sapiens, UniProt P35348); format: functional, cell-based
T1 sequence (P35348 whole entry): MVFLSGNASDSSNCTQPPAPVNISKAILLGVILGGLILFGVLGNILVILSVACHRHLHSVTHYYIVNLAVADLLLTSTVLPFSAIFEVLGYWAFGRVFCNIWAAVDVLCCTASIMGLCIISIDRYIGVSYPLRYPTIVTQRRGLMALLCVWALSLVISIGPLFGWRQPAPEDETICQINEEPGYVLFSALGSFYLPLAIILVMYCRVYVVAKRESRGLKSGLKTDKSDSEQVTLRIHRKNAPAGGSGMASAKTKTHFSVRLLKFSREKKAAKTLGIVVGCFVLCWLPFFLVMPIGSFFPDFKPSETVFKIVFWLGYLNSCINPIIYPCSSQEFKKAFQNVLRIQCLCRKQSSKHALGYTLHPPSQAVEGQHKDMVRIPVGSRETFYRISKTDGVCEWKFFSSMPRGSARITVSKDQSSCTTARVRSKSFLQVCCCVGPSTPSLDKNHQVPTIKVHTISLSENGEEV

[2] = biological target: Vascular endothelial growth factor receptor 2 (Homo sapiens, UniProt P35968); format: functional
Chain of Vascular endothelial growth factor receptor 2 (P35968 whole entry): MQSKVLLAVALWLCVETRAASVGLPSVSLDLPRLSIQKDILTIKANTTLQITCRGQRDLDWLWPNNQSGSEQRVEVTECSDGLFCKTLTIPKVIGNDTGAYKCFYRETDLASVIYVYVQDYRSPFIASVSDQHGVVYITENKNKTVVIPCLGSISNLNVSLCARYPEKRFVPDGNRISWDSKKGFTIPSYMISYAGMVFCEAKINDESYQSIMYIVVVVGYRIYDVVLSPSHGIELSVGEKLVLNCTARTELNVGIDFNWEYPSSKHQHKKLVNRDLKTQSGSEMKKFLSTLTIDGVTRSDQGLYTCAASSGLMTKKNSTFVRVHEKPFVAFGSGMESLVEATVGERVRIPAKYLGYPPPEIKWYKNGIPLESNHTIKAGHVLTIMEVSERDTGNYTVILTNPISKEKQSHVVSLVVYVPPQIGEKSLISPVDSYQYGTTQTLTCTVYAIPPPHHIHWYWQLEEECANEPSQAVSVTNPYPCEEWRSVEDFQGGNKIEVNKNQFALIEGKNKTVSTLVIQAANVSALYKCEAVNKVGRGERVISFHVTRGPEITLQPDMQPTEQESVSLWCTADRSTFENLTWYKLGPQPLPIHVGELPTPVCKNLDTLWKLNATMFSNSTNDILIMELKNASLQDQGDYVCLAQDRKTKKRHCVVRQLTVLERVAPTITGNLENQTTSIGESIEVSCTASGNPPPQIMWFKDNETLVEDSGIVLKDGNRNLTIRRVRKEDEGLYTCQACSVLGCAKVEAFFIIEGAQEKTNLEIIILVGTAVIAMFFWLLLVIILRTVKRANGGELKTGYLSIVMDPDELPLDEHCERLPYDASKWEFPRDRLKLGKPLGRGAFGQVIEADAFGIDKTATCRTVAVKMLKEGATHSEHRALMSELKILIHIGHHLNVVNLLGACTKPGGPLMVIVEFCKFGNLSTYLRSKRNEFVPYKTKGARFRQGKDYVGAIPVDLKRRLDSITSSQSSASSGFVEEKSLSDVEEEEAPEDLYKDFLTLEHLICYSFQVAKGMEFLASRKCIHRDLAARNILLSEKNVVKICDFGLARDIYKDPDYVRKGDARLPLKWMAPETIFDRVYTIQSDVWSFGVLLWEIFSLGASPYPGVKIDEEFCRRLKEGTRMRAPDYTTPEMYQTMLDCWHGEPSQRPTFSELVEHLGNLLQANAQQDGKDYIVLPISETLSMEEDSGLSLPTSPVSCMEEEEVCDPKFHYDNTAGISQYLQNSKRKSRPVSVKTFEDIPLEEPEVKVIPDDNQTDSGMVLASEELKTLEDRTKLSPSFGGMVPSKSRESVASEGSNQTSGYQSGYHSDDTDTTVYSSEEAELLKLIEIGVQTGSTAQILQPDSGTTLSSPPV

Cannabinoid receptor 1 = Cannabinoid receptor 1 (Homo sapiens, UniProt P21554); format: functional, cell-based
Chain of Cannabinoid receptor 1 (P21554 whole entry): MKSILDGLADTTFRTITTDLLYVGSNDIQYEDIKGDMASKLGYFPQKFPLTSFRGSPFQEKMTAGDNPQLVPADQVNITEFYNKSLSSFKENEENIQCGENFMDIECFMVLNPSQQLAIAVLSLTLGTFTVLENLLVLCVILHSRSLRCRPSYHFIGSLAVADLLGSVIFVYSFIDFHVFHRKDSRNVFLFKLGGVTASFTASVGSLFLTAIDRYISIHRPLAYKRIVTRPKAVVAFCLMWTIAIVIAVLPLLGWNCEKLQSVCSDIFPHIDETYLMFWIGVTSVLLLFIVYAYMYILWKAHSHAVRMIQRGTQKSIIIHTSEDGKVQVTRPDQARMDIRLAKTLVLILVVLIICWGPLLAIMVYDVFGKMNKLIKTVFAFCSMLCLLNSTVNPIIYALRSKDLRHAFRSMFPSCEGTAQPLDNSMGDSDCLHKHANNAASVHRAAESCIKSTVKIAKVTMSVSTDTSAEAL

[3] = biological target: T1, Alpha-1A adrenergic receptor; format: functional, cell-based; remark: listed apart in the source
[4] = biological target: Delta-type opioid receptor (Homo sapiens, UniProt P41143)
Chain of Delta-type opioid receptor (P41143 whole entry): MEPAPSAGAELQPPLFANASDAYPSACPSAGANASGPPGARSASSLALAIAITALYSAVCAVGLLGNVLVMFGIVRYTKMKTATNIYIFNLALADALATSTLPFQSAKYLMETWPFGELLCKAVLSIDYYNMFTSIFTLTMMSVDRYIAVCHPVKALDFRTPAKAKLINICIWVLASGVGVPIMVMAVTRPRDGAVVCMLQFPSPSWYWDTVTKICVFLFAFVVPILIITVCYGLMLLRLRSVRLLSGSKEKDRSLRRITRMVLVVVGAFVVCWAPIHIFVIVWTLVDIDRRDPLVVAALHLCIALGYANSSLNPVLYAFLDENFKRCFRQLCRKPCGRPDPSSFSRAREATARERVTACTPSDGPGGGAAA

Progesterone receptor = biological target: T2, Progesterone receptor (Homo sapiens, UniProt P06401); format: functional
T2 sequence (P06401 whole entry): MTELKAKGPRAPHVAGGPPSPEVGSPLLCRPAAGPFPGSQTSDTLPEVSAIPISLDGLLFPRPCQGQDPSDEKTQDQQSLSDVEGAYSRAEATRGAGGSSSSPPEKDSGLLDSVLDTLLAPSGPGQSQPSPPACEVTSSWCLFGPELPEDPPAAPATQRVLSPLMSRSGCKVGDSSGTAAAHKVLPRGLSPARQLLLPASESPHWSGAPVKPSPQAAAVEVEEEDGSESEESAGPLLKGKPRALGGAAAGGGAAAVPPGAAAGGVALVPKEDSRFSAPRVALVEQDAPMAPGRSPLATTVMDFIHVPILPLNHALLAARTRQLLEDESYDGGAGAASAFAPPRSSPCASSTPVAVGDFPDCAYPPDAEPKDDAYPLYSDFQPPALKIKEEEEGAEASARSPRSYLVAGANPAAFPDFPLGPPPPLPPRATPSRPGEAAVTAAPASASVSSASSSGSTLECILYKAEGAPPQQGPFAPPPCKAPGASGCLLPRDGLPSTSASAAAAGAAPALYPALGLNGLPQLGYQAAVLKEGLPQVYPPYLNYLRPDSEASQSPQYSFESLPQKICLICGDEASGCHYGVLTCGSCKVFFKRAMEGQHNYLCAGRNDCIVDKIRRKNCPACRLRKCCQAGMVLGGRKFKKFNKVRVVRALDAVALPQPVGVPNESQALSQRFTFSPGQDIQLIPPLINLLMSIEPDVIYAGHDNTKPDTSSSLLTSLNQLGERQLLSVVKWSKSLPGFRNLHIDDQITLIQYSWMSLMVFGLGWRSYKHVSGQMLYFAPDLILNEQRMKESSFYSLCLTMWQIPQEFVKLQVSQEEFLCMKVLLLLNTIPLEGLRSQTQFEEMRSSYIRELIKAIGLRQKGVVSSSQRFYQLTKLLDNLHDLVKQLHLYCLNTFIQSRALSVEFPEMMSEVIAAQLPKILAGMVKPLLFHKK

Thromboxane A2 receptor = biological target: T3, Thromboxane A2 receptor (Homo sapiens, UniProt P21731)
T3 sequence (P21731 whole entry): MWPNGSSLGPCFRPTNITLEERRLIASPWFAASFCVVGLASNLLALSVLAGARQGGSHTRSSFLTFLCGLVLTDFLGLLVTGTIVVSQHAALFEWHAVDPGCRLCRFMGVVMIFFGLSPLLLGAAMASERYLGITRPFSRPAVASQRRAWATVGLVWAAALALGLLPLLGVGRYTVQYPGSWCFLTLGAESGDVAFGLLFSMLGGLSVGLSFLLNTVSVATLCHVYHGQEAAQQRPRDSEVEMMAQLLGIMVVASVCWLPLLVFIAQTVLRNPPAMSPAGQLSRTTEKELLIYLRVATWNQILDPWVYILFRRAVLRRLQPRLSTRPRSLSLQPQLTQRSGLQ

[5] = biological target: T4, Equilibrative nucleoside transporter 1 (Homo sapiens, UniProt Q99808)
T4 sequence (Q99808 whole entry): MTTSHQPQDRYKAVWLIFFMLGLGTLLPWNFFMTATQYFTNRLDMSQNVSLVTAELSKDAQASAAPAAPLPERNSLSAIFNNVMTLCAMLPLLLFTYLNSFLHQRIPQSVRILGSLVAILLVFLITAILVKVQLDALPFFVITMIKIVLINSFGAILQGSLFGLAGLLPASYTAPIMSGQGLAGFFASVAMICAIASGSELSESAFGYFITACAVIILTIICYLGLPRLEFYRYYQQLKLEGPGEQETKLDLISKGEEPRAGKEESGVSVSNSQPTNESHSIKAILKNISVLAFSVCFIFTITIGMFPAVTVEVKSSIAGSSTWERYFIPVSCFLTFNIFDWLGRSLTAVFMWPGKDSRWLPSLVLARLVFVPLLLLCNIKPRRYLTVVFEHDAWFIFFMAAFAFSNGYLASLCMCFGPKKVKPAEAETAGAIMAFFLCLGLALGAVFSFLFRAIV

[6] = biological target: Sodium-dependent noradrenaline transporter (Homo sapiens, UniProt P23975)
Chain of Sodium-dependent noradrenaline transporter (P23975 whole entry): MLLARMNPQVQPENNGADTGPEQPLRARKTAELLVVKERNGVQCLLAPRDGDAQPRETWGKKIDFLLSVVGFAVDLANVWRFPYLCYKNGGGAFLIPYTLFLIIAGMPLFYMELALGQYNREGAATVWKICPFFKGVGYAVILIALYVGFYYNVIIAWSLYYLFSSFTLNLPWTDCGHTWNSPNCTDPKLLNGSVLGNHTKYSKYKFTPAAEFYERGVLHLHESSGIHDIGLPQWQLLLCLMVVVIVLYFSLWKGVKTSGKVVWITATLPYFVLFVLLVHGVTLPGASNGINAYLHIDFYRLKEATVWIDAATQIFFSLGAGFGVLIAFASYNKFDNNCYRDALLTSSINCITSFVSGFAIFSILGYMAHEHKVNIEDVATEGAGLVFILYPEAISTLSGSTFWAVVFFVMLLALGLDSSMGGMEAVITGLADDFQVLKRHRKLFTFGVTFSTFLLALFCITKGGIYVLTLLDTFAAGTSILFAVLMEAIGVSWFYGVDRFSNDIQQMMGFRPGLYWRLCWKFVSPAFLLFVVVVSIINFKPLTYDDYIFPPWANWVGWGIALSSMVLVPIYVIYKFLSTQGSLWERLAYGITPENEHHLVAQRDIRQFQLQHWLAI

[7] = biological target: T5, Muscarinic acetylcholine receptor M1 (Homo sapiens, UniProt P11229); format: functional, cell-based
T5 sequence (P11229 whole entry): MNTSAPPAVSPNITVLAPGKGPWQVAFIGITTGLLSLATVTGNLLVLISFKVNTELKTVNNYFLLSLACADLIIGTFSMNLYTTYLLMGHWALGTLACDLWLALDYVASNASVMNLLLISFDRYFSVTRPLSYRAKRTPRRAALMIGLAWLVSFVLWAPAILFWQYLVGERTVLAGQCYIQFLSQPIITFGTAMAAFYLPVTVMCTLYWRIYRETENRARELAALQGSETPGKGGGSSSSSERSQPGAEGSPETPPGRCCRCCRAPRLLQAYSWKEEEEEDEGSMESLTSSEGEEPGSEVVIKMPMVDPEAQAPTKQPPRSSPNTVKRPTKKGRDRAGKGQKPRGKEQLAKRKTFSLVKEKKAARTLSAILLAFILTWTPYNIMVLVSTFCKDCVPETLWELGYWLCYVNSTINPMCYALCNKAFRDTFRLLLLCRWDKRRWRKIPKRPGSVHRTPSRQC
Note: assay procedure not described here.

SMILES	AC50 [1]	AC50 [2]	AC50 (Cannabinoid receptor 1)	AC50 [3]	AC50 [4]	AC50 (Progesterone receptor)	AC50 (Thromboxane A2 receptor)	AC50 [5]	AC50 [6]	AC50 [7]
CCOc1cc(N)c(Cl)cc1C(=O)NCC1CN(Cc2ccc(F)cc2)CCO1 (centres undefined) [MOSAPRIDE]	> 30 µM	> 30 µM	–	–	–	–	–	–	–	–
CN1CCC[C@H]1c1cccnc1 [NICOTINE]	> 30 µM	> 30 µM	–	–	–	–	–	–	–	–
CC(=O)Oc1ccccc1C(=O)Nc1ncc([N+](=O)[O-])s1 [NITAZOXANIDE]	–	> 30 µM	> 30 µM	> 30 µM	5 µM	> 30 µM	5 µM	1.9 µM	5.1 µM	4.33 µM
CNC[C@H](O)c1cccc(O)c1 [PHENYLEPHRINE]	–	> 30 µM	> 30 µM	–	> 10 µM	–	> 30 µM	> 30 µM	> 10 µM	> 30 µM
O=C1NC(=O)C(c2ccccc2)(c2ccccc2)N1 [PHENYTOIN]	–	–	> 30 µM	> 30 µM	> 30 µM	> 30 µM	> 30 µM	> 30 µM	> 30 µM	–
CC(C)COc1ccc(CNC(=O)N(Cc2ccc(F)cc2)C2CCN(C)CC2)cc1 [PIMAVANSERIN]	11.4 µM	> 30 µM	–	–	–	–	–	–	–	–
NC(=O)c1ncn([C@@H]2O[C@H](CO)[C@@H](O)[C@H]2O)n1 [RIBAVIRIN]	–	–	> 30 µM	> 30 µM	> 30 µM	> 10 µM	> 10 µM	> 30 µM	> 10 µM	–
CCCN(CCC)CCc1cccc2c1CC(=O)N2 [ROPINIROLE]	–	–	> 30 µM	6.93 µM	> 30 µM	> 30 µM	> 30 µM	> 30 µM	> 30 µM	–
CC(C)N(CCCCOCC(=O)NS(C)(=O)=O)c1cnc(-c2ccccc2)c(-c2ccccc2)n1 [SELEXIPAG]	–	–	> 30 µM	> 30 µM	25 µM	> 30 µM	23.9 µM	> 30 µM	> 30 µM	–
CCCCCCCCNC(C)C(O)c1ccc(SC(C)C)cc1 (centres undefined) [SULOCTIDIL]	–	> 30 µM	–	–	–	–	–	–	–	–
CCCCNc1ccc(C(=O)OCCN(C)C)cc1 [TETRACAINE]	> 30 µM	–	> 30 µM	> 30 µM	> 10 µM	–	> 30 µM	> 30 µM	> 10 µM	–
Cn1c(=O)c2[nH]cnc2n(C)c1=O [THEOPHYLLINE]	> 10 µM	–	> 30 µM	> 30 µM	> 30 µM	–	> 30 µM	> 30 µM	> 30 µM	–
CC1(C)O[C@@H]2[C@@H](CO[C@@]3(COS(N)(=O)=O)OC(C)(C)O[C@@H]23)O1 [TOPIRAMATE]	> 30 µM	–	> 30 µM	–	> 10 µM	–	> 30 µM	> 30 µM	> 10 µM	> 30 µM
Cc1cc(CC(=O)O)n(C)c1C(=O)c1ccc(Cl)cc1 [ZOMEPIRAC]	–	–	> 30 µM	> 30 µM	> 30 µM	> 30 µM	> 30 µM	> 30 µM	> 30 µM	–
